Earlier results as cited in PubChem BioAssay AID1259409 (Chemical Carcinogenesis Research Information System (CCRIS), 2018).

Tested on: rodent chemically induced tumor inhibition, incidence and multiplicity
Test: CCRIS tumor inhibitor studies
Conditions: Route [Inhibitor]: ORAL

**Q.** With `Cc1c(-c2cnccn2)ssc1=S` as the compound, how does the “tumour outcome (control, treated, inhibition, significance)” value (Carcinogen: NITROSOBIS(2-OXOPROPYL)AMINE [60599-38-4], Dose [Inhibitor]: 200 PPM IN DIET FOR 4 WK BEGINNING 1 WK PRIOR TO FIRST CARCINOGEN DOSE (STUDY DURATION: 52 WK), Species: HAMSTER, Strain/Sex: SYRIAN/FEMALE, Target Tissue: Type of Lesion: LIVER: HEPATOCELLULAR ADENOMA, Dose [Carcinogen]: 10 MG/KG BW 1X/WK FOR 3 WK (STUDY DURATION: 52 WK)) read?
**A.** 16.7%, 20.7%, -24%, not significant

**Q.** And the “tumour outcome (control, treated, inhibition, significance)” value (Carcinogen: NITROSOBIS(2-OXOPROPYL)AMINE [60599-38-4], Dose [Inhibitor]: 200 PPM IN DIET FOR 4 WK BEGINNING 1 WK PRIOR TO FIRST CARCINOGEN DOSE (STUDY DURATION: 52 WK), Species: HAMSTER, Strain/Sex: SYRIAN/FEMALE, Target Tissue: Type of Lesion: LIVER: HEPATOCELLULAR CARCINOMA, Dose [Carcinogen]: 10 MG/KG BW 1X/WK FOR 3 WK (STUDY DURATION: 52 WK))?
**A.** 6.7%, 6.9%, -3%, not significant

**Q.** What about the “tumour outcome (control, treated, inhibition, significance)” value (Carcinogen: NITROSOBIS(2-OXOPROPYL)AMINE [60599-38-4], Dose [Inhibitor]: 200 PPM IN DIET FOR 4 WK BEGINNING 1 WK PRIOR TO FIRST CARCINOGEN DOSE (STUDY DURATION: 52 WK), Species: HAMSTER, Strain/Sex: SYRIAN/FEMALE, Target Tissue: Type of Lesion: LUNG: ADENOCARCINOMA, Dose [Carcinogen]: 10 MG/KG BW 1X/WK FOR 3 WK (STUDY DURATION: 52 WK)) of the same compound?
**A.** 46.7%, 37.9%, 19%, not significant

**Q.** What about the “tumour outcome (control, treated, inhibition, significance)” value (Carcinogen: NITROSOBIS(2-OXOPROPYL)AMINE [60599-38-4], Dose [Inhibitor]: 200 PPM IN DIET FOR 4 WK BEGINNING 1 WK PRIOR TO FIRST CARCINOGEN DOSE (STUDY DURATION: 52 WK), Species: HAMSTER, Strain/Sex: SYRIAN/FEMALE, Target Tissue: Type of Lesion: LUNG: ADENOMA, Dose [Carcinogen]: 10 MG/KG BW 1X/WK FOR 3 WK (STUDY DURATION: 52 WK)) of the same compound?
**A.** 86.7%, 75.9%, 12%, not significant

**Q.** What about the “tumour outcome (control, treated, inhibition, significance)” value (Carcinogen: NITROSOBIS(2-OXOPROPYL)AMINE [60599-38-4], Dose [Inhibitor]: 200 PPM IN DIET FOR 4 WK BEGINNING 1 WK PRIOR TO FIRST CARCINOGEN DOSE (STUDY DURATION: 52 WK), Species: HAMSTER, Strain/Sex: SYRIAN/FEMALE, Target Tissue: Type of Lesion: PANCREAS: ADENOCARCINOMA, Dose [Carcinogen]: 10 MG/KG BW 1X/WK FOR 3 WK (STUDY DURATION: 52 WK)) of the same compound?
**A.** 13/30 (43.3%), 20/29 (68.9%), -59%, not significant

**Q.** And the “tumour outcome (control, treated, inhibition, significance)” value (Carcinogen: NITROSOBIS(2-OXOPROPYL)AMINE [60599-38-4], Dose [Inhibitor]: 400 PPM IN DIET FOR 4 WK BEGINNING 1 WK PRIOR TO FIRST CARCINOGEN DOSE (STUDY DURATION: 52 WK), Species: HAMSTER, Strain/Sex: SYRIAN/FEMALE, Target Tissue: Type of Lesion: GALL BLADDER: ADENOMA, Dose [Carcinogen]: 10 MG/KG BW 1X/WK FOR 3 WK (STUDY DURATION: 52 WK))?
**A.** 13.3%, 21.1%, -59%, not significant

**Q.** What about the “tumour outcome (control, treated, inhibition, significance)” value (Carcinogen: NITROSOBIS(2-OXOPROPYL)AMINE [60599-38-4], Dose [Inhibitor]: 400 PPM IN DIET FOR 4 WK BEGINNING 1 WK PRIOR TO FIRST CARCINOGEN DOSE (STUDY DURATION: 52 WK), Species: HAMSTER, Strain/Sex: SYRIAN/FEMALE, Target Tissue: Type of Lesion: KIDNEY: RENAL CELL ADENOMA, Dose [Carcinogen]: 10 MG/KG BW 1X/WK FOR 3 WK (STUDY DURATION: 52 WK)) of the same compound?
**A.** 3.3%, 3.4%, -3%, not significant

**Q.** What about the “tumour outcome (control, treated, inhibition, significance)” value (Carcinogen: NITROSOBIS(2-OXOPROPYL)AMINE [60599-38-4], Dose [Inhibitor]: 400 PPM IN DIET FOR 4 WK BEGINNING 1 WK PRIOR TO FIRST CARCINOGEN DOSE (STUDY DURATION: 52 WK), Species: HAMSTER, Strain/Sex: SYRIAN/FEMALE, Target Tissue: Type of Lesion: KIDNEY: RENAL CELL CARCINOMA, Dose [Carcinogen]: 10 MG/KG BW 1X/WK FOR 3 WK (STUDY DURATION: 52 WK)) of the same compound?
**A.** 6.7%, 10.3%, -54%, not significant

**Q.** What about the “tumour outcome (control, treated, inhibition, significance)” value (Carcinogen: NITROSOBIS(2-OXOPROPYL)AMINE [60599-38-4], Dose [Inhibitor]: 400 PPM IN DIET FOR 4 WK BEGINNING 1 WK PRIOR TO FIRST CARCINOGEN DOSE (STUDY DURATION: 52 WK), Species: HAMSTER, Strain/Sex: SYRIAN/FEMALE, Target Tissue: Type of Lesion: LIVER: CHOLANGIOCELLULAR ADENOMA, Dose [Carcinogen]: 10 MG/KG BW 1X/WK FOR 3 WK (STUDY DURATION: 52 WK)) of the same compound?
**A.** 6.7%, 0.0%, 100%, not significant

**Q.** What about the outcome (Carcinogen: NITROSOBIS(2-OXOPROPYL)AMINE [60599-38-4], Dose [Inhibitor]: 400 PPM IN DIET FOR 4 WK BEGINNING 1 WK PRIOR TO FIRST CARCINOGEN DOSE (STUDY DURATION: 52 WK), Species: HAMSTER, Strain/Sex: SYRIAN/FEMALE, Target Tissue: Type of Lesion: LIVER: CHOLANGIOCELLULAR CARCINOMA, Dose [Carcinogen]: 10 MG/KG BW 1X/WK FOR 3 WK (STUDY DURATION: 52 WK)) of the same compound?
**A.** 0.0%, 7.1%, -100%, not significant

**Q.** What about the “tumour outcome (control, treated, inhibition, significance)” value (Carcinogen: NITROSOBIS(2-OXOPROPYL)AMINE [60599-38-4], Dose [Inhibitor]: 400 PPM IN DIET FOR 4 WK BEGINNING 1 WK PRIOR TO FIRST CARCINOGEN DOSE (STUDY DURATION: 52 WK), Species: HAMSTER, Strain/Sex: SYRIAN/FEMALE, Target Tissue: Type of Lesion: LIVER: HEPATOCELLULAR ADENOMA, Dose [Carcinogen]: 10 MG/KG BW 1X/WK FOR 3 WK (STUDY DURATION: 52 WK)) of the same compound?
**A.** 16.7%, 14.3%, 14%, not significant

**Q.** And the “tumour outcome (control, treated, inhibition, significance)” value (Carcinogen: NITROSOBIS(2-OXOPROPYL)AMINE [60599-38-4], Dose [Inhibitor]: 400 PPM IN DIET FOR 4 WK BEGINNING 1 WK PRIOR TO FIRST CARCINOGEN DOSE (STUDY DURATION: 52 WK), Species: HAMSTER, Strain/Sex: SYRIAN/FEMALE, Target Tissue: Type of Lesion: LIVER: HEPATOCELLULAR CARCINOMA, Dose [Carcinogen]: 10 MG/KG BW 1X/WK FOR 3 WK (STUDY DURATION: 52 WK))?
**A.** 6.7%, 7.1%, -6%, not significant

**Q.** What about the “tumour outcome (control, treated, inhibition, significance)” value (Carcinogen: NITROSOBIS(2-OXOPROPYL)AMINE [60599-38-4], Dose [Inhibitor]: 400 PPM IN DIET FOR 4 WK BEGINNING 1 WK PRIOR TO FIRST CARCINOGEN DOSE (STUDY DURATION: 52 WK), Species: HAMSTER, Strain/Sex: SYRIAN/FEMALE, Target Tissue: Type of Lesion: LUNG: ADENOCARCINOMA, Dose [Carcinogen]: 10 MG/KG BW 1X/WK FOR 3 WK (STUDY DURATION: 52 WK)) of the same compound?
**A.** 46.7%, 17.2%, 63%, p<0.05

**Q.** And the “tumour outcome (control, treated, inhibition, significance)” value (Carcinogen: NITROSOBIS(2-OXOPROPYL)AMINE [60599-38-4], Dose [Inhibitor]: 400 PPM IN DIET FOR 4 WK BEGINNING 1 WK PRIOR TO FIRST CARCINOGEN DOSE (STUDY DURATION: 52 WK), Species: HAMSTER, Strain/Sex: SYRIAN/FEMALE, Target Tissue: Type of Lesion: LUNG: ADENOMA, Dose [Carcinogen]: 10 MG/KG BW 1X/WK FOR 3 WK (STUDY DURATION: 52 WK))?
**A.** 86.7%,58.6%, 32%, p<0.05

**Q.** What about the “tumour outcome (control, treated, inhibition, significance)” value (Carcinogen: NITROSOBIS(2-OXOPROPYL)AMINE [60599-38-4], Dose [Inhibitor]: 400 PPM IN DIET FOR 4 WK BEGINNING 1 WK PRIOR TO FIRST CARCINOGEN DOSE (STUDY DURATION: 52 WK), Species: HAMSTER, Strain/Sex: SYRIAN/FEMALE, Target Tissue: Type of Lesion: PANCREAS: ADENOCARCINOMA, Dose [Carcinogen]: 10 MG/KG BW 1X/WK FOR 3 WK (STUDY DURATION: 52 WK)) of the same compound?
**A.** 13/30 (43.3%), 19/28 (67.9%), -57%, not significant

**Q.** What about the “tumour outcome (control, treated, inhibition, significance)” value (Dose [Inhibitor]: 0, 0.075% IN DIET FOR 4 WK BEGINNING 1 WK PRIOR TO CARCINOGEN TREATMENT (STUDY DURATION: 23 MO), Species: RAT, Strain/Sex: F344/MALE, Target Tissue: Type of Lesion: LIVER: ADENOMA, Dose [Carcinogen]: 25 UG IN 0.1 ML TRICAPRYLIN 5 D/WK FOR 2 WK, Promoter: NONE USED) of the same compound?
**A.** 4/45 (9%), 0/46 (0%), 100%, p<0.05

**Q.** And the “tumour outcome (control, treated, inhibition, significance)” value (Dose [Inhibitor]: 0, 0.075% IN DIET FOR 4 WK BEGINNING 1 WK PRIOR TO CARCINOGEN TREATMENT (STUDY DURATION: 23 MO), Species: RAT, Strain/Sex: F344/MALE, Target Tissue: Type of Lesion: LIVER: CARCINOMA, Dose [Carcinogen]: 25 UG IN 0.1 ML TRICAPRYLIN 5 D/WK FOR 2 WK, Promoter: NONE USED)?
**A.** 5/45 (11%), 0/46 (0%), 100%, p<0.05
